Results taken from PMC10313808, “Lipoxygenase inhibitory synthetic derivatives of methyl gallate regulate gene expressions of COX-2 and cytokines to reduce animal model arthritis” (Scientific Reports, 2023).
Like-named read-outs stand apart in the source and are kept apart here.

What was measured:
[1] = biological target: T1, Lipoxidase from Glycine max (15- LOX) (Glycine max, UniProt P08170); set-up: method as in PMID 29847215; conditions: read-out: IC50 (LOX enzyme); previous study ref 16; cited from earlier work
T1 construct: purchased Sigma (Sigma-Aldrich, UK)
T1 sequence (P08170 1-839): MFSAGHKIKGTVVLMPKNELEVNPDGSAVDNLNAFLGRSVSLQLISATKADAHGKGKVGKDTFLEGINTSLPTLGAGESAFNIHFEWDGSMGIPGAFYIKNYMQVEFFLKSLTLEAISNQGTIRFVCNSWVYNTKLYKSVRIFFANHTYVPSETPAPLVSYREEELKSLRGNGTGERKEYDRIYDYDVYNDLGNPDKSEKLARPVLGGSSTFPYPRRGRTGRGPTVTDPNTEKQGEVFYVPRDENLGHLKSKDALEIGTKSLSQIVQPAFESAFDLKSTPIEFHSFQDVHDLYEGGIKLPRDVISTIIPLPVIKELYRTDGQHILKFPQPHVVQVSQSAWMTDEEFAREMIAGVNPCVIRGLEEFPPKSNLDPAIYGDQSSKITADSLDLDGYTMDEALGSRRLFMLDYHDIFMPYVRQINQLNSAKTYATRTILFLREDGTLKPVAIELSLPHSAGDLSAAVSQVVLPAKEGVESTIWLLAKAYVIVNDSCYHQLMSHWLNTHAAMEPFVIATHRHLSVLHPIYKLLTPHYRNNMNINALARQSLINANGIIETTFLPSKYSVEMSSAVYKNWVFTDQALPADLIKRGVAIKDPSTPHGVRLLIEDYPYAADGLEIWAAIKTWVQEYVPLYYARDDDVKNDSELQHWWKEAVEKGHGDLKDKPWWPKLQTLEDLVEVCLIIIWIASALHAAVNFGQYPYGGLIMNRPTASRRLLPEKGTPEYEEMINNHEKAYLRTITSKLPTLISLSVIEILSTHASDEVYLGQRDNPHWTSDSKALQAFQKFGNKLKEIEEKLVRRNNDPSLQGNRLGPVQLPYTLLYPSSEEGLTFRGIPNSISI

[2] = biological target: T1, Lipoxidase from Glycine max (15- LOX); experiment: Michaelis–Menten enzyme kinetics (Lineweaver-Burk); format: biochemical; conditions: for IC50: Cheng–Prusoff from Ki
Procedure: To identify the mode of inhibition, enzyme kinetics assay was performed with MGSDs. For the kinetic analysis different substrate concentrations of 18, 27, 36, 45, 54, 63 µM were prepared in 0.2 mM borate buffer (H 9)[16]. The assay mixture was made of 50 µL of LOX, 50 µL of the test solution and different concentrations of the substrate. The final volume was made upto 2 mL with corresponding borate buffer quantity. The activity of LOX was measured by the formation of […], which was monitored at 234 nm on spectrophotometer, (HITACHI U 2900, Japan). The reaction was measured at a time span of 300 s. The same experiment was repeated in the presence of 0.1, 0.08 and 0.06 μM concentration of MGSDs. The Line Weaver-Burk plot was constructed and Michaelis–Menten constant (Km) and Maximal Velocity (Vmax) were determined from the plot. From the Km and Vmax obtained, the inhibitor constant, Ki was calculated using the following equation derived from the Michaelis–Menten Equation: Km′=Km1+I0/Ki. The IC50was calculated using the Cheng–Prusoff equation, Ki=IC50/1+S/Km.

LOX = biological target: T2, LOX (Glycine max, UniProt P08170); experiment: Fluorescence quenching studies; format: binding; conditions: 296 K, pH 9
T2 construct: purchased Sigma (Sigma-Aldrich, UK)
T2 sequence (P08170 1-839): T1 sequence (P08170 1-839)
Excerpt: To analyze the type of mechanism, the data of fluorescence of LOX was plotted, as relative fluorescence intensity (F0/F), against MGSDs. Here F and F0 are the fluorescence intensity in the presence and absence of MGSDs respectively. The Stern–Volmer constants were obtained from the plot by linear regression using the expression: F0/F=1+KsvQ.
Ksv is the Stern–Volmer constant and [Q] is the respective concentration of derivatives. Ksv which depicts the binding affinity between the fluorophore (protein) and quencher (ligand), were obtained from the slopes of the plot (Supplementary Fig. 15). […] The Fluorescence quenching data provided information about the binding constant (K), the number of binding sites (n), and the values could be arrived by applying the equation. Log F0-F/F=log K+nlogQ.
The Fluoromax-4 spectrophotometer (Spectra-NanoLED source 278) was used for studying fluorescence quenching of the compound. Bandwidth set at 5 nm for both excitation and emission spectra. The wavelength was set for excitation at 280 nm and the emission was recorded at 290–450 nm using 1.0 cm cell at 296 K temperature. The LOX with a concentration of 7 μM, dissolved in borate buffer at pH 9 and ligands at the concentrations of 35, 70, 105, 140, 175, 210, 245 and 280 μM were used for the experiment.

Compound | IC50 [1] | IC50 [2] | IC50 ([2]; abstract) | Ki ([2]; linoleic acid substrate, competitive) | Kd (LOX; read-out: Binding constant (K) (converted)) | Quenching constant (Ksv) (LOX; Stern–Volmer)
COC(=O)c1cc(O)c(O)c(O)c1 [Methyl gallate] | 30700 nM | – | – | – | – | –
O=C(O)COc1cc(C(=O)O)cc(OCC(=O)O)c1OCC(=O)O [MGSD 1, 2,2′,2″-((5-carboxybenzene-1,2,3-triyl)tris(oxy)) tri acetic acid] | – | 102 nM | 100 nM | 30 nM | 752000 nM | 6200 M⁻¹
